Experimental data taken from ChEMBL document CHEMBL1145068 (J Med Chem, 2003).

Key:
[1] = target: T1, Alpha-2A adrenergic receptor (Rattus norvegicus, UniProt P22909); test: Binding affinity for rat cortex Alpha-2 adrenergic receptor was determined using [3H]-RX 81002 binding
T1 sequence (P22909 whole entry): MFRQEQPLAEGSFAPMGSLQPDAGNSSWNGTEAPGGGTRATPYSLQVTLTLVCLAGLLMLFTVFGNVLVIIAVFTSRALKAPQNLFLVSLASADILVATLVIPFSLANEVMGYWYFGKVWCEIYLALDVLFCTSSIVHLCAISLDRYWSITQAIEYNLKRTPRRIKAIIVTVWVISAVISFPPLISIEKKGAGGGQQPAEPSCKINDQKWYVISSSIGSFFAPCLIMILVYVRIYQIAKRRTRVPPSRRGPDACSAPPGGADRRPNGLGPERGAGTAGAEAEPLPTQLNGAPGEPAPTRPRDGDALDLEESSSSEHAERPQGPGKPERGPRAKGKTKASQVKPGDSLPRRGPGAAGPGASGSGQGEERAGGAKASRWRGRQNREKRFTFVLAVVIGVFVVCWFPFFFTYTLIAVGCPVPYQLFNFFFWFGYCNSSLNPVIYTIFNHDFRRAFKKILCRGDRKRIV

[2] = target: T2, Alpha-1A adrenergic receptor (Rattus norvegicus, UniProt P43140); test: Binding affinity for rat cortex alpha-1 adrenergic receptor by inhibition of [3H]prazosin binding
T2 sequence (P43140 whole entry): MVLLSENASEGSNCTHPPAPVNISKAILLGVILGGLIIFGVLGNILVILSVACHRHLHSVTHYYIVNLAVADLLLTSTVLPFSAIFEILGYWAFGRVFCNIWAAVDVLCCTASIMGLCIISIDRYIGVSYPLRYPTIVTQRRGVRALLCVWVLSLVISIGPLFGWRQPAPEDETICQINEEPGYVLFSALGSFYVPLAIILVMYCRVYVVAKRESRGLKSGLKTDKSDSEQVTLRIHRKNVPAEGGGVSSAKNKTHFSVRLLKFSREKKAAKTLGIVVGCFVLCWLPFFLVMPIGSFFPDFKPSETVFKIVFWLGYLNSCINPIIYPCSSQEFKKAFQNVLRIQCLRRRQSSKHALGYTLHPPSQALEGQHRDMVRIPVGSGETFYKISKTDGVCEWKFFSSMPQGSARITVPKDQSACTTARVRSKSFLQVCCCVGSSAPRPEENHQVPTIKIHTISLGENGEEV

[3] = target: T3, 5-hydroxytryptamine receptor 1A (Rattus norvegicus, UniProt P19327); test: Binding affinity for rat hippocampus 5-hydroxytryptamine 1A receptor by inhibition of [3H]8-OH-DPAT binding; assay type: tissue-based
T3 sequence (P19327 whole entry): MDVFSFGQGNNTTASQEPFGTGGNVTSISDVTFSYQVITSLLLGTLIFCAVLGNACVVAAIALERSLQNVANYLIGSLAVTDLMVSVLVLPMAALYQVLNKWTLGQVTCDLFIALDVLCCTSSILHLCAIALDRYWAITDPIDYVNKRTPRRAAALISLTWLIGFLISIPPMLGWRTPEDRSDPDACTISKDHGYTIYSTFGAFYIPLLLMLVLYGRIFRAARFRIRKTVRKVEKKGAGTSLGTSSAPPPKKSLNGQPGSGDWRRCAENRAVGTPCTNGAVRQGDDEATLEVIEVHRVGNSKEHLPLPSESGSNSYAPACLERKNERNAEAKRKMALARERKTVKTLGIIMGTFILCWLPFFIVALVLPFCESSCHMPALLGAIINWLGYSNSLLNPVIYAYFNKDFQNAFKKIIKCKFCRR

D(1A) dopamine receptor = D(1A) dopamine receptor (Rattus norvegicus, UniProt P18901); test: Binding affinity for rat striatum Dopamine receptor D1 by […] displacement.; assay type: tissue-based
D(2) dopamine receptor = D(2) dopamine receptor (Rattus norvegicus, UniProt P61169); test: Binding affinity for rat striatum Dopamine receptor D2 by [3H]spiperone displacement.; assay type: tissue-based
D(3) dopamine receptor = D(3) dopamine receptor (Rattus norvegicus, UniProt P19020); test: biochemical
Description: Binding affinity for rat striatum Dopamine receptor D3 (sf9 cells) by [3H]7-OH-DPAT displacement.

[4] = target: D(3) dopamine receptor (Homo sapiens) (UniProt P35462); test: Maximal stimulation reached was evaluated by using [35S]- GTP-gamma S radioligand; assay type: functional
[5] = target: T1, Alpha-2A adrenergic receptor; test: Binding affinity for rat cortex alpha-2 adrenergic receptor was determined using [3H]-RX 81002 binding

Chain of D(2) dopamine receptor (P61169 whole entry): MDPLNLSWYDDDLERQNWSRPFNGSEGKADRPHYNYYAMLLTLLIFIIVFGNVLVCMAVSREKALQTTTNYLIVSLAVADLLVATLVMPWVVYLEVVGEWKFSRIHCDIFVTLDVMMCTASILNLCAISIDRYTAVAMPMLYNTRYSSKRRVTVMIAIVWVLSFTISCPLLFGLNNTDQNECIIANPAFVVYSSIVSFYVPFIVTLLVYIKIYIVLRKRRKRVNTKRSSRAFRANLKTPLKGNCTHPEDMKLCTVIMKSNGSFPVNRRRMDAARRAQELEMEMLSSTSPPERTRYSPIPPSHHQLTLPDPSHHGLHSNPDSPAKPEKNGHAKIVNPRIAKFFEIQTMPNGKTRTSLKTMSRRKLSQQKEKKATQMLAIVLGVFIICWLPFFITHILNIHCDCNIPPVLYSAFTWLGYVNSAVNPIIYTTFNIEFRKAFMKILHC
Chain of D(1A) dopamine receptor (P18901 whole entry): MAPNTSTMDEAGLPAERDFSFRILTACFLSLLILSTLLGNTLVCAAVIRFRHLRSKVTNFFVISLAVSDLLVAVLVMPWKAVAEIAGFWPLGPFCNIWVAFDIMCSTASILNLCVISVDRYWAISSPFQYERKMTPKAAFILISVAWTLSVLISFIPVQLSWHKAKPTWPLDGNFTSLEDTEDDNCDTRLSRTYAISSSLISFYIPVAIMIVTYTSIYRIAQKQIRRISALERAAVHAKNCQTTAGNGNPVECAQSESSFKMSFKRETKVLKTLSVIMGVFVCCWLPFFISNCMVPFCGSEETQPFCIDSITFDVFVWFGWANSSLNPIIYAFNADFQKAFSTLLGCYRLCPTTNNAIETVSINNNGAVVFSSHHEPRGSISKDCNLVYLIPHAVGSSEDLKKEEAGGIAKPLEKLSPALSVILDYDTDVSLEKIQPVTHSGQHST
Chain of D(3) dopamine receptor (P19020 whole entry): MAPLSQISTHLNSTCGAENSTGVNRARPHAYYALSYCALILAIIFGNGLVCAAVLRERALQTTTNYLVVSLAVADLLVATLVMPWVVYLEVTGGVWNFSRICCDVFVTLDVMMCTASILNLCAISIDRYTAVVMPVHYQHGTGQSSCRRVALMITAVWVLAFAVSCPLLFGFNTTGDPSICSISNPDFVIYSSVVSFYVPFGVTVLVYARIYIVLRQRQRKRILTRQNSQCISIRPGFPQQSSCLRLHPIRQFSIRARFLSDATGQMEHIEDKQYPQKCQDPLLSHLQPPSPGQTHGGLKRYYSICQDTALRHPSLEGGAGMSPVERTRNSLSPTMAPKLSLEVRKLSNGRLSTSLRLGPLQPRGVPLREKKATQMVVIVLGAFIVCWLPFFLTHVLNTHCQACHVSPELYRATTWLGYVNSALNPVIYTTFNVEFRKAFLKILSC
Chain of D(3) dopamine receptor (Homo sapiens) (P35462 whole entry): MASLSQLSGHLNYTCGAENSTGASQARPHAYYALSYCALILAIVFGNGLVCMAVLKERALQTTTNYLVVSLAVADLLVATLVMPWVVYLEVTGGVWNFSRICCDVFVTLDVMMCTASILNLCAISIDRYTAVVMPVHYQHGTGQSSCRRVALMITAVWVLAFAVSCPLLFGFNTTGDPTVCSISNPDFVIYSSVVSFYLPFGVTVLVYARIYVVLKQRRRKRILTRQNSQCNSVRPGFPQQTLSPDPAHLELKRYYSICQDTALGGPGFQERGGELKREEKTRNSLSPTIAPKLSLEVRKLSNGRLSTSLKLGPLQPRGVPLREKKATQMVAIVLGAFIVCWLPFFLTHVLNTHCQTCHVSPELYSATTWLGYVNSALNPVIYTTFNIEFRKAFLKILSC

| SMILES | Ki [1] | Ki [2] | Ki [3] | Ki (D(1A) dopamine receptor) | Ki (D(2) dopamine receptor) | Ki (D(3) dopamine receptor) | Activity [4] | Ki [5] |
| --- | --- | --- | --- | --- | --- | --- | --- | --- |
| COc1ccccc1N1CCN(CCCCNC(=O)c2cc3ccccc3o2)CC1 | 54 nM | 36 nM | – | – | – | – | – | – |
| COc1ccccc1N1CCN(CCCCN2CCn3c(cc4ccccc43)C2=O)CC1 | 89 nM | 33 nM | 4.9 nM | 1570 nM | 45 nM | 0.87 nM | – | – |
| O=C(NCCCCN1CCN(c2ccc(Cl)c(Cl)c2)CC1)c1cc2ccccc2o1 | – | – | – | 1660 nM | 333 nM | 7.8 nM | – | – |
| COc1ccccc1N1CCN(CCCCNC(=O)c2ccc3ccccc3n2)CC1 | – | – | – | 1350 nM | 83 nM | 4.8 nM | – | – |
| COc1ccccc1N1CCN(CCCCNC(=O)c2cc3ccccc3[nH]2)CC1 | 76 nM | 666 nM | 11.8 nM | 970 nM | 160 nM | 2.9 nM | – | – |
| O=C(NCCCCN1CCN(c2ccc(Cl)cc2Cl)CC1)c1cc2ccccc2[nH]1 | > 10000 nM | 547 nM | – | > 10000 nM | – | – | – | – |
| COc1ccccc1N1CCN(CCCCNC(=O)c2nc3ccccc3n3cccc23)CC1 | – | – | – | 778 nM | 59 nM | 28 nM | – | – |
| O=C(NCCCCN1CCN(c2ccc(Cl)cc2Cl)CC1)c1cc2cc(Cl)ccc2[nH]1 | > 10000 nM | 8100 nM | – | > 10000 nM | – | 0.38 nM | – | – |
| COc1ccccc1N1CCN(CCCCNC(=O)c2cnc3ccccc3n2)CC1 | – | – | – | 1440 nM | 84 nM | 11 nM | – | – |
| O=C(NCCCCN1CCN(c2ccc(Cl)cc2Cl)CC1)c1cc2ccccc2o1 | 1890 nM | 779 nM | 908 nM | 7660 nM | 409 nM | 0.41 nM | – | – |
| N#Cc1ccc(N2CCN(CCCCNC(=O)c3cc4ccccc4o3)CC2)cc1 | – | – | – | – | – | 41.3 nM | – | – |
| COc1ccccc1N1CCN(CC2CCN(C(=O)c3cc4ccccc4o3)CC2)CC1 | – | – | – | 2680 nM | 244 nM | 74 nM | – | – |
| O=C(NCCCCN1CCN(c2ccc(Cl)cc2Cl)CC1)c1cc2ccccc2cn1 | 1050 nM | 629 nM | 1050 nM | 7750 nM | 342 nM | 0.66 nM | – | – |
| NCCc1c[nH]c2ccc(O)cc12 | – | – | – | – | – | – | 30 µM | – |
| COc1ccccc1N1CCN(CCCCNC(=O)c2ccc3ccccc3c2)CC1 [BP-897] | 83 nM | – | – | – | – | – | – | – |
| COc1ccccc1N1CCN(CCCCNC(=O)[C@H]2Cc3ccccc3CN2)CC1 | – | – | – | – | – | 4.3 nM | – | – |
| COc1ccccc1N1CCN(CCNCc2coc(-c3cc4ccccc4o3)n2)CC1 | – | – | – | > 10000 nM | 518 nM | 759 nM | – | – |
| COc1ccccc1N1CCN(CCCCNC(=O)[C@@H]2Cc3ccccc3CN2)CC1 | – | – | – | – | – | 9.2 nM | – | – |
| COc1ccccc1N1CCN(CCCCNC(=O)c2cc3ccccc3cn2)CC1 | – | 5.8 nM | 3.12 nM | 1480 nM | 75 nM | 0.49 nM | – | 76 nM |
| COc1ccccc1N1CCN(CCNCc2coc(-c3ccc4ccccc4c3)n2)CC1 | – | – | – | > 10000 nM | 86 nM | 295 nM | – | – |
